Reference: patent US9603930B2, “Liquid bendamustine formulation” (Navinta, LLC, priority 2014, dated 2017)

Columns and labels:
[1] = 2 months of storage at 25° C.; cited from earlier work
[2] = polyethylene glycol alone; from U.S. Pat. No. 8,609,707; cited from earlier work
[3] = Solubility of bendamustine in solvents

Question: With `Cl.Cn1c(CCCC(=O)O)nc2cc(N(CCCl)CCCl)ccc21` as the molecule, how does the “stability of the solid on storage” value [1] read?
Answer: The value was “degrades”.

Question: Which “solubility in PEG alone” value [2] does the source give for `Cn1c(CCCC(=O)O)nc2cc(N(CCCl)CCCl)ccc21` [Bendamustine, 4-[5-[bis(2-chloroethyl)amino]-1-methylbenzimidazol-2-yl]butanoic acid] here?
Answer: Its value is “poorly soluble”.

Question: What about the solubility in glycerin [3] of the same molecule?
Answer: The solubility in glycerin was “very high solubility”.
